Assay results as given in patent US20180179210A1, “Inhibitors of the TEC Kinase Enzyme Family” (Pharmascience Inc., priority 2015, published 2018).
pEC50, pIC50: −log10 of the molar value.

Legend:
human BTK kinase (hBTK) = target: T1, human BTK kinase (hBTK) (Homo sapiens, UniProt Q06187); assay: BTK kinase inhibition assay (Kinase Profiler radiometric protein kinase assay, Eurofins); assay type: biochemical; settings: radiometric [γ-33P-ATP] assay, 40 minutes at room temperature, 250 μM substrate
T1 construct: purchased Eurofins Pharma Discovery Services UK Limited (contract assay, Kinase Profiler)
T1 sequence (Q06187 whole entry): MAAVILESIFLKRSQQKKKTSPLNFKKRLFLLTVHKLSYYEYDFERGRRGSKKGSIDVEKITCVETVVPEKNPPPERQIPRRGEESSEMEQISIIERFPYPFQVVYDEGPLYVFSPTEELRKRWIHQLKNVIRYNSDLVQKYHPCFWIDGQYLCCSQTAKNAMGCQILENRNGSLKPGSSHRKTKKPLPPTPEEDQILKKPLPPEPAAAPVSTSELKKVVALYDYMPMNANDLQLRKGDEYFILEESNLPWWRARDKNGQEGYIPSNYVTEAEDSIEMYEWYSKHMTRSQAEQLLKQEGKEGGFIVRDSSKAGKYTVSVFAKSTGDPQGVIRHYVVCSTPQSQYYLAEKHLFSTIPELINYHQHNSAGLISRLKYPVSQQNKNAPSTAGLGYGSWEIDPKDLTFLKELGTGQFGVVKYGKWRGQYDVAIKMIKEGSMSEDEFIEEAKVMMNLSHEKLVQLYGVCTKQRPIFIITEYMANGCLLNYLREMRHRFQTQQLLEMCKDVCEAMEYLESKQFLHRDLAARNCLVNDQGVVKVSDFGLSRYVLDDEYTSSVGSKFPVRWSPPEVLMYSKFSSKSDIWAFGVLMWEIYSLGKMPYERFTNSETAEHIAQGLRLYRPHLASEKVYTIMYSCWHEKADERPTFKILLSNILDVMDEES
Method: In vitro potency of selected compound was defined against human BTK kinase (hBTK) using Kinase Profiler radiometric protein kinase assays performed at Eurofins Pharma Discovery Services UK Limited.
hBTK kinase is diluted in buffer and all compounds were prepared to 50× final assay concentration in 100% DMSO. This working stock of the compound was added to the assay well as the first component in the reaction, followed by the remaining components as detailed in the assay protocol listed above. The reaction was initiated by the addition of the MgATP mix. The kinase reaction was performed at room temperature for 40 minutes in presence of 250 μM substrate, 10 mM MgAcetate, [γ-33P-ATP] (specific activity approx. 500 cpm/pmol, concentration as required) and variable test article concentrations. The ATP concentrations in the assays were with 15 μM of the apparent. The reaction was stopped by the addition of 3% phosphoric acid solution. 10 μL of the reaction is then spotted onto a P30 filtermat and washed three times for 5 minutes in 75 mM phosphoric acid and once in methanol prior to drying and scintillation counting. In addition positive control wells contain all components of the reaction, except the compound of interest; however, DMSO (at a final concentration of 2%) were included in these wells to control for solvent effects as well as blank wells contain all components of the reaction, with a reference inhibitor replacing the compound of interest. This abolishes kinase activity and establishes the base-line (0% kinase activity remaining).

[1] = tested on: TMD-8 human activated B cell diffuse large B cell lymphoma cells; assay: TMD-8 survival assay; assay type: cell-based; settings: TMD8, TMD-8 cells, 72 h treatment, Cell Titer-Glo
Method: BTK inhibitors affect the survival of B-cell lymphomas. TMD-8 human activated B cell diffuse large B cell lymphoma cells were seeded in 96-well plates at a density of 20,000 cells/well in HyClone RPMI supplemented with 10% FBS (Fisher)/1% Penicillin/Streptomycin (HyClone) and incubated at 37° C., 5% CO2. Cells were treated in triplicate with 1,000 nM or 100 nM curves of compounds for 72 h. Cell survival was measured by Cell Titer-Glo Luminescent Assay (Promega). EC50 values (50% proliferation in the presence of compound as compared to vehicle treated controls) were calculated from dose response compound curves using GraphPad Prism Software.

Splenocytes = assay: Splenic cell proliferation assay (anti-IgM stimulated); assay type: cell-based; settings: Splenocyte; CD1 mouse splenocytes, 1 h pre-treatment, 2.5 ug/ml anti-IgM F(ab')2 for 72 h, Cell Titer-Glo; read-out: EC50 (inhibition of splenic cell proliferation)
Method: Proliferation of splenocytes in response to anti-IgM can be blocked by inhibition of Btk.
Splenocytes were obtained from 6 week old male CD1 mice (Charles River Laboratories Inc.). Mouse spleens were manually disrupted in PBS and filtered using a 70 um cell strainer followed by ammonium chloride red blood cell lysis. Cells were washed, resuspended in Splenocyte Medium (HyClone RPMI supplemented with 10% heat-inactivated FBS, 0.5× non-essential amino acids, 10 mM HEPES, 50 uM beta mercaptoethanol) and incubated at 37° C., 5% CO2 for 2 h to remove adherent cells. Suspension cells were seeded in 96 well plates at 50,000 cells per well and incubated at 37° C., 5% CO2 for 1 h. Splenocytes were pre-treated in triplicate with 10,000 nM curves of Formula 1 compounds for 1 h, followed by stimulation of cell proliferation with 2.5 ug/ml anti-IgM F(ab′)2 (Jackson ImmunoResearch) for 72 h. Cell proliferation was measured by Cell Titer-Glo Luminescent Assay (Promega). EC50 values (50% proliferation in the presence of compound as compared to vehicle treated controls) were calculated from dose response compound curves using GraphPad Prism Software EC50 values are reported in Table 3: […]

Compound | pIC50 (human BTK kinase (hBTK)) | pEC50 [1] | pEC50 (Splenocytes)
Cc1ncc(COc2cc(F)cc(Oc3ccc(-c4nn(C[C@H]5CCCN5C#N)c5ncnc(N)c45)cc3)c2)cn1 [Compound 1] | 7.12 | 7.46 | 7.91
Cc1ncc(COc2cc(F)cc(Oc3ccc(-c4nn(C[C@H]5CCCN5C(=O)C5=CCCC5)c5ncnc(N)c45)cc3)c2)cn1 [Compound 2] | 6.92 | < 7.00 | < 7.00
C/C=C/C(=O)N1CCC[C@@H]1Cn1nc(-c2ccc(Oc3cc(F)cc(OCc4cnc(C)nc4)c3)cc2)c2c(N)ncnc21 [Compound 3] | 6.89 | 7.34 | 7.89
C=C(C)C(=O)N1CCC[C@@H]1Cn1nc(-c2ccc(Oc3cc(F)cc(OCc4cnc(C)nc4)c3)cc2)c2c(N)ncnc21 [Compound 4] | 6.90 | < 7.00 | < 7.00
CC#CC(=O)N1CCC[C@@H]1Cn1nc(-c2ccc(Oc3cc(F)cc(OCc4cnc(C)nc4)c3)cc2)c2c(N)ncnc21 [Compound 5] | 6.90 | 7.31 | 8.11
C=C(F)C(=O)N1CCC[C@@H]1Cn1nc(-c2ccc(Oc3cc(F)cc(OCc4cnc(C)nc4)c3)cc2)c2c(N)ncnc21 [Compound 6] | 7.26 | 7.44 | 7.94
C=C(C)C(=O)N1CCC[C@@H](n2nc(-c3ccc(Oc4cc(F)cc(OCc5cnc(C)nc5)c4)cc3)c3c(N)ncnc32)C1 [Compound 7] | 7.80 | < 7.00 | 7.31
Cc1ncc(COc2cc(F)cc(Oc3ccc(-c4nn([C@@H]5CCCN(C#N)C5)c5ncnc(N)c45)cc3)c2)cn1 [Compound 8] | 7.96 | 7.87 | 8.34
Cc1ncc(COc2cc(F)cc(Oc3ccc(-c4nn(C[C@H]5CCCN5C(=O)/C=C/CN(C)C)c5ncnc(N)c45)cc3)c2)cn1 [Compound 9] | 7.40 | 7.73 | 8.19
C#CC(=O)N1CCC[C@@H](n2nc(-c3ccc(Oc4cc(F)cc(OCc5cnc(C)nc5)c4)cc3)c3c(N)ncnc32)C1 [Compound 10] | 8.10 | 7.12 | 8.01
CC#CC(=O)N1CCC[C@@H](n2nc(-c3ccc(Oc4cc(F)cc(OCc5cnc(C)nc5)c4)cc3)c3c(N)ncnc32)C1 [Compound 11] | 8.00 | 7.88 | 8.82
C=CC(=O)N1CCC[C@@H](n2nc(-c3ccc(Oc4cc(F)cc(OCc5cnc(C)nc5)c4)cc3)c3c(N)ncnc32)C1 [Compound 12] | 8.22 | 7.78 | 8.51
C#CC(=O)N1CCC[C@@H]1Cn1nc(-c2ccc(Oc3cc(F)cc(OCc4cnc(C)nc4)c3)cc2)c2c(N)ncnc21 [Compound 13] | 7.46 | 7.10 | 7.31
C=CC(=O)N1CCC[C@@H]1Cn1nc(-c2ccc(Oc3cc(F)cc(OCc4cnc(C)nc4)c3)cc2)c2c(N)ncnc21 [Compound 14] | 7.60 | 7.86 | 8.60
Cc1ncc(COc2cc(F)cc(Oc3ccc(-c4nn(C[C@H]5CCCN5C(=O)C5=CCC5)c5ncnc(N)c45)cc3)c2)cn1 [Compound 15] | 7.28 | 7.25 | 8.06
Cc1ncc(COc2cc(F)cc(Oc3ccc(-c4nn([C@@H]5CCCN(C(=O)/C=C/CN(C)C)C5)c5ncnc(N)c45)cc3)c2)cn1 [Compound 16] | 8.15 | 7.92 | 8.39
Cc1ncc(COc2cc(F)cc(Oc3ccc(-c4nn(C5CCN(C#N)CC5)c5ncnc(N)c45)cc3)c2)cn1 [Compound 33] | – | < 7.00 | 7.33
C=CC(=O)N1CC2(CC(n3nc(-c4ccc(Oc5cc(F)cc(OCc6cnc(C)nc6)c5)cc4)c4c(N)ncnc43)C2)C1 [Compound 34] | – | – | 8.82
C=C(F)C(=O)N[C@H]1C[C@@H](n2nc(-c3ccc(Oc4cc(F)cc(OCc5cnc(C)nc5)c4)cc3)c3c(N)ncnc32)C1 [Compound 35] | – | – | 9.00
